From patent publication US20100285959A1, “HERBICIDAL MIXTURES” (priority 2006, published 2010)

Key:
[1] = system: wild chamomile (MATCH); test: Test 23 growth chamber, postemergence; type: in vivo, Matricaria chamomilla; conditions: 21 DAA
Procedure: (§1) A test was conducted to evaluate the effects on winter barley (HORVW, Hordeum vulgare L.), winter wheat (TRZAW, Triticum aestivum L.), and several weed species of mixtures of Compound 2 with the commercial herbicides (2,4-dichlorophenoxy)acetic acid (2,4-D) and (4-chloro-2-methylphenoxy)acetic acid (MCPA), auxin mimics. […] Plants were treated postemergence at the 2-4 leaf growth stage, and each treatment was replicated three times. […] Plants were watered as needed. […] Results are means of the three replicates.

[2] = system: field poppy (PAPRH); test: Test 21 growth chamber, postemergence; type: in vivo, Papaver rhoeas; conditions: 19 DAA
Procedure: as §1, with “species,” for “species”, “herbicide” for “herbicides”, “(2,4-D), an” for “(2,4-D) and (4-chloro-2-methylphenoxy)acetic acid (MCPA),”, “mimic.” for “mimics.”, “one time.” for “three times.”, “from single” for “means of the three”

[3] = system: winter barley (HORVW); test: Test 23 growth chamber, postemergence; type: in vivo, Hordeum vulgare; conditions: 21 DAA
Procedure: as §1

[4] = system: tropical spiderwort (COMBE); test: Test 12 field trial, preemergence; type: in vivo, Commelina benghalensis; set-up: scale not given here; conditions: Cpd 2 or Cpd 1 62 g a.i./ha, Diuron 2000 g a.i./ha
From the text: In early-mid spring season, corn seeds (hybrid ‘Pioneer 3041’) were planted 5 cm deep and sugarcane nodes (variety RB-72.454) were planted 10 cm deep in separate plots in a clay soil having 2.6% organic matter and a pH of 5.6. Plots were 24 m long by 1.5 m wide with rows spaced 80 cm (corn) or 140 cm (sugarcane) apart. Corn seeds were spaced 15 cm apart and sugarcane nodes were spaced 10 cm apart within the rows. At the same time, weed seeds were broadcast over the surface of separate plots without a crop, one weed species per plot. The weed plots were rotary tilled to incorporate the weed seeds to a variety of depths. The field was managed using conventional tillage practices.

[5] = system: giant ragweed (AMBTR); test: Test 9 field trial, emerged weeds before corn planting; type: in vivo, Ambrosia trifida; conditions: g a.i./ha: Cpd 2 100, Glyphosate 1540, Paraquat 1150
Procedure: (§2) Corn seeds (hybrid ‘Pioneer 34M91 RR’) were planted in mid spring season, about 3.8 cm deep in a silty clay loam soil having a pH of 6.7. Plots were 9.1 m long by 3.0 m. The field was managed using no-till practices. […] Compound 2 and paraquat treatments, alone and in combination, also included a surfactant. Glyphosate, alone and with Compound 2, included ammonium sulfate in the treatment mixture. […] The effects on the weeds in the treated plots and untreated control plots were recorded 7, 14, 23, 30 and 57 days after application. Most of the weed species could not be evaluated at every timing. Corn response was only evaluated 57 days after application. […] Results are the means of the three replicates.

[6] = system: henbit deadnettle (LAMAM); test: as above; type: in vivo, Lamium amplexicaule; conditions: g a.i./ha: Cpd 2 100, Glyphosate 1540, Paraquat 1150
Procedure: as §2

[7] = system: shepherd's purse (CAPBP); test: as above; type: in vivo, Capsella bursa-pastoris; conditions: g a.i./ha: Cpd 2 100, Glyphosate 1540, Paraquat 1150
Procedure: as §2

[8] = system: velvetleaf (ABUTH); test: Test 14 field trial, preemergence, growth as percent of control; type: in vivo, Abutilon theophrasti
From the text: Corn seeds (hybrid ‘Pioneer 31G96 RR’) were planted in mid spring season, 3.8 cm deep in a clay loam soil having 2% organic matter and a pH of 6.6. Plots were 6.1 m long by 3.0 m wide with rows spaced 76 cm apart. Seeds were spaced 15 cm apart within the rows. The field was managed using conventional tillage practices. […] Yellow nutsedge was only evaluated 19 and 28 days after application, and ivyleaf morningglory could only be evaluated 28 days after application. […] Results are the means of the three replicates. This growth inhibition data was converted to results in the form of “plant growth as a percent of control plant growth” using the calculation “100 minus growth inhibition”. […] For “growth as a percent of control” data, Colby's Equation calculates the expected additive effect of herbicidal mixtures having two active ingredients as follows:
Ga+b=GaGb/100 • wherein Ga+b is the growth as a percent of control of plants treated with the mixture expected from additive contribution of the individual components, • Ga is the observed growth as a percent of control of plants treated with the first active ingredient at the same use rate as in the mixture, and • Gb is the observed growth as a percent of control of plants treated with the second active ingredient at the same use rate as in the mixture. For mixtures having three active ingredients, Colby's Equation to calculate the expected additive effect of herbicidal mixtures is as follows:
Ga+b+c=GaGbGc/10,000 • wherein Ga and Gb are as defined above and • Ga+b+c is the growth as a percent of control of plants treated with the mixture expected from additive contribution of the individual components, and • Gc is the observed growth as a percent of control of plants treated with the third active ingredient at the same use rate as in the mixture. When these two forms of Colby's Equation are used, if the observed effects on weeds are less than the expected values, the mixture is synergistic.

[9] = system: giant foxtail (SETFA); test: Test 3 field trial, emerged weeds before corn planting; type: in vivo, Setaria faberi; conditions: 68 DAA; Cpd 2 100, glyphosate 1540, paraquat 1150 g a.i./ha, alone or combined
From the text: Corn seeds (hybrid ‘Pioneer 33J56’) were planted in early spring season, 3.8 cm deep in a silt loam soil having 2.4% organic matter and a pH of 6. Plots were 6.1 m long by 2.7 m wide with rows spaced 91.4 cm apart. The field was managed using no-till practices. […] Compound 2 and paraquat treatments, alone and in combination, also included a surfactant. Glyphosate, alone and with Compound 2, included ammonium sulfate in the treatment mixture. […] The effects on the weeds in the treated plots and untreated control plots were recorded 30, 42, 46 and 68 days after application. Most of the weed species could not be evaluated at every timing. Corn response was not evaluated because the growth was highly variable depending on the efficacy of the weed control treatments. […] Results are the means of the three replicates.

[10] = 2,4-D or MCPA alone 250 g a.i./ha

| SMILES | COMBE Obs ([4]; 15 DAA) | COMBE Obs ([4]; 29 DAA) | COMBE Obs ([4]; 48 DAA) | COMBE Obs ([4]; 61 DAA) | AMBTR Obs ([5]; 7 DAA) [%] | AMBTR Obs ([5]; 14 DAA) [%] | AMBTR Obs ([5]; 57 DAA) [%] | LAMAM Obs ([6]; 7 DAA) [%] | LAMAM Obs ([6]; 14 DAA) [%] | LAMAM Obs ([6]; 23 DAA) [%] | LAMAM Obs ([6]; 30 DAA) [%] | LAMAM Obs ([6]; 57 DAA) [%] | CAPBP Obs ([7]; 7 DAA) [%] | CAPBP Obs ([7]; 14 DAA) [%] | CAPBP Obs ([7]; 23 DAA) [%] | CAPBP Obs ([7]; 30 DAA) [%] | CAPBP Obs ([7]; 57 DAA) [%] | SETFA Obs [9] [%] | also measured |
| --- | --- | --- | --- | --- | --- | --- | --- | --- | --- | --- | --- | --- | --- | --- | --- | --- | --- | --- | --- |
| O=C(O)COc1ccc(Cl)cc1Cl [2,4-D, (2,4-dichlorophenoxy)acetic acid] |  |  |  |  |  |  |  |  |  |  |  |  |  |  |  |  |  |  | Postemergence MATCH Obs [1, 10]: 60; Postemergence PAPRH Obs ([2]; 2,4-D alone 125 g a.i./ha): 35; Postemergence PAPRH Obs ([2]; 2,4-D alone 250 g a.i./ha): 35; Postemergence HORVW Obs [3, 10]: 25 |
| Nc1nc(C2CC2)nc(C(=O)O)c1Cl [Compound 1, 6-amino-5-chloro-2-cyclopropyl-4-pyrimidinecarboxylic acid] | 60 | 40 | 40 | 0 |  |  |  |  |  |  |  |  |  |  |  |  |  |  |  |
| COC(=O)c1nc(C2CC2)nc(N)c1Cl [Compound 2, methyl 6-amino-5-chloro-2-cyclopropyl-4-pyrimidinecarboxylate] | 50 | 40 | 40 | 40 | 85 | 83 | 89 | 22 | 27 | 50 | 65 | 89 | 23 | 17 | 7 | 0 | 0 | 40 | Postemergence MATCH Obs ([1]; Cpd 2 alone 4 g a.i./ha): 52; Postemergence MATCH Obs ([1]; Cpd 2 alone 8 g a.i./ha): 63; Postemergence MATCH Obs ([1]; Cpd 2 alone 16 g a.i./ha): 75; Postemergence PAPRH Obs ([2]; Cpd 2 alone 16 g a.i./ha): 65; Obs growth % of control ([8]; 19 DAA, 75 g a.i./ha): 80%; Obs growth % of control ([8]; 19 DAA, 100 g a.i./ha): 60%; Obs growth % of control ([8]; 28 DAA, 75 g a.i./ha): 43%; Obs growth % of control ([8]; 28 DAA, 100 g a.i./ha): 22%; Obs growth % of control ([8]; 56 DAA, 75 g a.i./ha): 43%; Obs growth % of control ([8]; 56 DAA, 100 g a.i./ha): 30%; Postemergence HORVW Obs ([3]; Cpd 2 alone 4 g a.i./ha): 32; Postemergence HORVW Obs ([3]; Cpd 2 alone 8 g a.i./ha): 38; Postemergence HORVW Obs ([3]; Cpd 2 alone 16 g a.i./ha): 38 |
| O=C(O)CNCP(=O)(O)O [Glyphosate] |  |  |  |  | 25 | 77 | 85 | 25 | 37 | 79 | 95 | 66 | 52 | 73 | 88 | 98 | 100 | 0 |  |
| CCc1cccc(C)c1N(C(=O)CCl)[C@@H](C)COC [S-Metolachlor, S-metolachlor, reference compound] |  |  |  |  |  |  |  |  |  |  |  |  |  |  |  |  |  |  | Obs growth % of control ([8]; 19 DAA, 1870 g a.i./ha): 68%; Obs growth % of control ([8]; 28 DAA, 1870 g a.i./ha): 6%; Obs growth % of control ([8]; 56 DAA, 1870 g a.i./ha): 87% |
